{"source": "patent US20250170154A1", "about": "(GreenStone Biosciences, Inc., priority 2023, published 2025)", "key": {"[1]": {"assay": "Pharmacokinetics in the rat, solid form (powder in mini-capsules)", "type": "in vivo", "conditions": "rat, in vivo"}, "[2]": {"tested_on": "mice with cerulein-induced chronic pancreatitis", "assay": "Cerulein model of chronic pancreatitis (CP)", "type": "in vivo, mouse", "conditions": "100 mg/Kg daily on the last 4 weeks", "protocol": "Using the cerulein model, acute edematous pancreatitis was induced in two test groups of mice by eight hourly intraperitoneal injections of 50 μg/Kg cerulein, with control group mice receiving injections of physiological saline. Compound 2, at 100 mg/Kg, was administered to one of the cerulein groups by gavage 30 minutes after the first and fourth cerulein injections. Mice were sacrificed one hour after the last injection and tissues were collected for histological analysis. […] Recurrent acute pancreatitis (RAP) and chronic pancreatitis (CP) were induced by repetitive cerulein injections every third day over a span of 14 days (RAP) or 6 weeks (CP). Compound 2 was administered daily at 50 mg/Kg on the last 10 consecutive days for RAP and at 100 mg/Kg on the last 4 weeks for CP, with vehicle controls. Mice were sacrificed 1 day after the last cerulein injection and tissues were collected for histological analysis. In the CP model, the cerulein injections induced extensive acinar cell damage."}, "mdx mice": {"tested_on": "mdx mice", "assay": "mdx mice, blood cytokine analysis", "type": "in vivo, mouse", "conditions": "20 mg/Kg/day by gavage, four-month-old mdx mice", "excerpt": "Dis., 21, 579-589 (2011), “Duchenne muscular dystrophy (DMD) is the most common lethal X-linked recessive disorder, affecting 1 in 3500 live male births. DMD children show early symptoms of muscle degeneration, frequently develop contractures, and lose the ability to walk by 13 years of age. With disease. progression, most patients succumb to death from respiratory failure and cardiac dysfunction in early adulthood. The primary cause of this disease stems from the lack of the protein dystrophin, which is essential for the structural and functional integrity of muscle membrane. Dystrophin absence results in membrane damage, allowing massive infiltration of immune cells, chronic inflammation, necrosis, and severe muscle degeneration . . . . […] The genistein phosphate derivatives of this invention are therefore expected to be useful for the treatment of subjects with Duchenne muscular dystrophy."}, "[3]": {"assay": "Thermodynamic solubility in FaSSIF", "type": "physicochemical", "conditions": "thermodynamic from solid, room temperature, 24 hours shaking", "protocol": "After shaking, the samples were centrifuged at 25° C. for 20 minutes at 4000 rpm. Filtrates were prepared using the Whatman Mini-UniPrep Syringeless Filter Device (PTFE filter media with polypropylene housing, pore size 0.45 μm) from Cytiva, and dilutions were performed as required. Quantification of all samples was carried out using an LC-UV system."}, "[4]": {"assay": "Stability in simulated gastric fluid (SGF)", "type": "in vitro ADME", "conditions": "SGF pH 1.2, 37° C., 2 μM", "protocol": "The stability of compounds 1 to 4, and the control compound omeprazole, were measured in simulated gastric fluid (SGF: 0.2% w/v sodium chloride, 0.7% v/v hydrochloric acid, and 0.32% w/v pepsin in deionized water, pH 1.2±0.05). Stock solutions of the compounds (10 mM) were diluted to 200 μM in DMSO, then duplicate 2 μL aliquots added to 96-well plates for time points 0, 1, 2, 6, and 24 hours. SGF (198 μL) was added to all wells except those for time 0, to give a starting compound concentration of 2 μM; and the samples were incubated at 37° C. with agitation at 600 rpm for the prescribed times. After incubation, 200 μL of each sample was extracted and mixed with 400 μL cold ACN containing 200 ng/mL tolbutamide and labetalol as internal standards. The samples were centrifuged at […] for 20 minutes at 4° C., and the supernatants (60 μL) each diluted with purified water (180 μL) for LC/MS/MS analysis. The percentage of the test compound remaining at each time point was calculated based on the ratio of the peak area of the analyte to the internal standards."}, "[5]": {"tested_on": "mice with DSS-induced colitis", "assay": "DSS-induced colitis in mice", "type": "in vivo, mouse", "conditions": "50 mg/Kg daily by gavage", "protocol": "Mice, placed on a soy-free diet for 14 days, were administered 3.5% DSS in their drinking water for 8 days to induce colitis, and either untreated or treated with compound 2 at 50 mg/Kg daily by gavage from day 1 (prevention) or from day 5 (intervention); and monitored for clinical indicators of colitis, including stool consistency, rectal bleeding, and changes in body weight. […] The genistein phosphate derivatives of this invention are therefore expected to be useful for the treatment of subjects with inflammatory bowel disease, ulcerative colitis, and Crohn's disease."}, "16 month-old mice": {"tested_on": "16 month-old mice", "assay": "16 month-old mice with 7-day osmotic pumps", "type": "in vivo, mouse", "protocol": "Three groups of 16 month-old mice were implanted with 7-day osmotic pumps dispensing vehicle, 0.24 mg/Kg/day, and 2.4 mg/Kg/day of compound 2. All three groups of animals lost ˜1% of body weight over the 7 days."}, "[6]": {"conditions": "both prevention and intervention modes"}, "[7]": {"conditions": "0.24 and 2.4 mg/Kg/day, 7-day osmotic pumps"}}, "note": "Read-outs that look alike come from different tables or passages of the source.", "data": [{"molecule": "O=c1c(-c2ccc(O)cc2)coc2cc(OCOP(=O)(O)O)cc(O)c12", "note": "[Compound 2, ((5-Hydroxy-3-(4-hydroxyphenyl)-4-oxo-4H-chromen-7-yl)oxy)methyl dihydrogen phosphate]", "values": [{"measurement": "half-life", "setting": "[1]; male, SD, po", "result": "~2", "unit": "h"}, {"measurement": "Tmax", "setting": "[1]; male, SD, po, 100 mg/kg", "result": "~0.167", "unit": "h"}, {"measurement": "decline of plasma concentration of dosed compound", "setting": "[1]; 100 mg/kg", "result": "slower rapid decline in concentration than for solution dosing"}, {"measurement": "overall outcome over untreated mice (histology)", "setting": "[2]", "result": "marked improvement"}, {"measurement": "acinar cell death", "setting": "[2]; vs untreated group", "result": "significant reduction"}, {"measurement": "acinar cell density", "setting": "[2]; vs untreated group", "result": "increase"}, {"measurement": "Leptin in blood", "setting": "mdx mice", "result": "significantly reduced"}, {"measurement": "blood cytokines BAFF, BTC, CCL7, CCL11, CSF3, CXCL10, IL-1α, IL-1β, IL-5, IL-10, IL-18, IL-19, IL-2RA, IL-7RA, LIF, MIP-10, MIP2, TNF-α, VEGF", "setting": "mdx mice", "result": "appeared to be reduced"}, {"measurement": "solubility at 24 h", "setting": "[3]; read-out: Solubility", "result": 7.82, "unit": "mM"}, {"measurement": "solubility at 24 h", "setting": "[3]; read-out: Solubility (μg/mL)", "result": 2970, "unit": "µg/mL"}, {"measurement": "Percentage remaining at time: 1 hour", "setting": "[4]; 1 hour", "result": 100, "unit": "%"}, {"measurement": "Percentage remaining at time: 2 hours", "setting": "[4]; 2 hours", "result": 104, "unit": "%"}, {"measurement": "Percentage remaining at time: 6 hours", "setting": "[4]; 6 hours", "result": 116, "unit": "%"}, {"measurement": "Percentage remaining at time: 24 hours", "setting": "[4]; 24 hours", "result": 113, "unit": "%"}, {"measurement": "Percentage remaining at time: 0", "setting": "[4]; time 0", "result": 100, "unit": "%"}, {"measurement": "weight loss", "setting": "[5]; both prevention (from day 1) and intervention (from day 5) modes, 3.5% DSS", "result": "reduced"}, {"measurement": "colon length", "setting": "[5]; [6]", "result": "improved"}, {"measurement": "diarrhea", "setting": "[5]; [6]", "result": "reduced"}, {"measurement": "histology of the colon", "setting": "[5]; [6]", "result": "histological improvement"}, {"measurement": "rectal bleeding", "setting": "[5]; [6]", "result": "reduced"}, {"measurement": "fasting blood glucose relative to the control group", "setting": "16 month-old mice; 2.4 mg/Kg/day group", "result": "significant decrease"}, {"measurement": "body weight lost over the 7 days", "setting": "16 month-old mice; 0.24 and 2.4 mg/Kg/day groups (same as vehicle group)", "result": "~1", "unit": "%"}, {"measurement": "IL-13 blood levels", "setting": "16 month-old mice; [7]", "result": "reduced in a dose-dependent manner"}, {"measurement": "Leptin blood levels", "setting": "16 month-old mice; [7]", "result": "reduced in a dose-dependent manner"}, {"measurement": "fasting blood glucose relative to the control group", "setting": "16 month-old mice; both treatment groups, 0.24 and 2.4 mg/Kg/day, 7-day osmotic pumps", "result": "lowered"}]}]}
